This is an account of results in patent US10537102B2, “Synergistic fungicidal composition for controlling plant diseases” (Sumitomo Chemical Company, Limited, priority 2016, dated 2020).

Test [1] has as its system Septoria leaf blotch (Mycosphaerella graminicola). The test can be described thus: Test Example 3: growth of Septoria leaf blotch in YBG medium, microtiter plate, absorbance at 550 nm. It counts as cell-based. Conditions: single use, 18° C., four days. How it is done:
Each of the present compound 1-3 or the present compound 2 was dissolved into dimethyl sulfoxide such that each concentration of these compounds was adjusted to one hundred fifty times as much as the concentration indicated in the below-mentioned Table 3. The resultant agent solution was dispensed into each microtiter plate (with 96 wells) in 1 μl portion thereof per well. 149 μl of YBG medium to which conidia of Septoria leaf blotch (Mycosphaerella graminicola) was inoculated in advance (which was prepared by dissolving 10 g of yeast extract, 10 g of Bacto Peptone, and 20 mL of glycerol into 1 L of water, followed by sterilizing the medium) was dispensed into each of the well to which the agent solution was dispensed. The plate was cultivated at 18° C. for four days, thereby allowing Septoria leaf blotch (Mycosphaerella graminicola) to undergo proliferation, and the absorbance at 550 nm of each well of the microtiter plate was then measured to examine a degree of growth of Septoria leaf blotch (hereinafter referred to as “treated group”).
Whereas, Septoria leaf blotch was proliferated similarly to the case of the treated group except that dimethyl sulfoxide was used instead of the agent solution, and the degree of the growth was examined (hereinafter referred to as “untreated group”). The efficacy was calculated from each of the obtained degree of growth of the treated group and the untreated group respectively by the following “Equation 1”.
Efficacy (%)=100×(X−Y)/X Equation 1
X: Degree of growth of fungus in the untreated group
Y: Degree of growth of fungus in the treated group

Test [2] relates to Brown rust (Puccinia recondita). Briefly: Test Example 4: foliar spray on wheat, Brown rust lesion area. Conditions: single use, flowable, foliar spray one day before inoculation. Format: in vivo, Puccinia recondita on wheat (cultivar. Shirogane). As to the method:
Five (5) parts of the present compound 1-3, 35 parts of a mixture of white carbon and ammonium polyoxyethylene alkyl ether sulfate (the weight ratio of 1:1) and […] of water were mixed, and the mixture was then finely-ground by a wet grinding method to obtain a flowable comprising the present compound 1-3. Separately, the flowable comprising the present compound 2 was prepared according to the above-mentioned similar method except that the […].
Each of the flowable comprising the present compound 1-3 and the flowable comprising the present compound 2 was diluted with water and if necessary, the resultant dilute solutions were mixed each other such that each concentration of the respective compounds in the dilution solution was adjusted to the concentration indicated in Table 4, to prepare the dilution solutions, respectively.
A plastic pot was filled with soil, and thereto wheat (cultivar. Shirogane) was seeded, and the plants were grown in a greenhouse for ten days. The above-mentioned dilution solutions were sprayed to foliar parts so as to adhere adequately onto the surfaces of leaves of the above wheats. After spraying the dilute solution, the plants were air-dried, and one day after the application, an aqueous suspension of uredospores of Brown rust (Puccinia recondita) was inoculated by spraying thereto. After the inoculation, the plants were placed at 27° C. under humid condition for one day, and were then cultivated under lighting for ten days, and a lesion area was examined (hereinafter referred to as “lesion area of treated group”).
Whereas, wheats were cultivated similarly to the treated group except that no foliage application of the above-mentioned agent solution was done, and Brown rust were inoculated, and the lesion area thereof was examined (hereinafter referred to as “lesion area of the untreated group”).
From each of the lesion area of the treated group and the untreated group, respectively, the efficacy of the treated group was calculated by the following Equation 2.
Efficacy (%)=[1−(lesion area of the treated group)/(lesion area of the untreated group)]×100 Equation 2

Molecules are shown by their SMILES.

As to `Cc1cccc(-n2nnn(C)c2=O)c1COc1ccn(-c2ccc(Cl)cc2)n1` [Present compound 1-3, 1-(2-{[1-(4-chlorophenyl)-1H-pyrazol-3-yl]oxymethyl}-3-methylphenyl)-4-methyl-1,4-dihydrotetrazol-5-one], the “Efficacy (%)” value came out at 20% in test [1] (concentration in medium 0.0001 ppm), 37% in test [1] (concentration in medium 0.01 ppm), 35% in test [2] (concentration in agent solution 0.002 ppm) and 70% in test [2] (concentration in agent solution 0.01 ppm).
Consider `CC1CC(C)(C)c2c(F)ccc(NC(=O)c3cn(C)nc3C(F)F)c21` (stereo not shown) [Present compound 2], for which the “Efficacy (%)” value in test [1] (concentration in medium 0.001 ppm) turned out to be 20%; in test [2] (concentration in agent solution 0.001 ppm), 15%; in test [2] (concentration in agent solution 0.02 ppm) it was 55%.
